# Source: patent US20220016154A1, “TREATMENT OF NEURONAL MOSAICISM IN DEMENTIA” (Crownview Medical Group, Inc., priority 2020, published 2022)
# How the values were obtained:
# [1] = test system: patient with advanced dementia; experiment: Case report: dementia patient administered a regimen of ZDV (Retrovir), clinical observation and SMMSE; assay type: in vivo, human; conditions: one patient, SMMSE 2 to 4 before treatment; after 8 weeks of treatment
# [2] = test system: HIV-associated dementia; conditions: HIV patients, antiretroviral therapy; cited from earlier work
compound,measurement,setting,value
Cc1cn([C@H]2C[C@H](N=[N+]=[N-])[C@@H](CO)O2)c(=O)[nH]c1=O [Zidovudine],SMMSE scores,[1],not consistently improved
same,ability to remember and communicate about where they lived,[1],specific improvements in their ability to remember and communicate about where they lived
same,alertness and awareness of surroundings,[1],more alert and aware of their surroundings
same,progression of HIV-associated dementia,[2],slowed
